biological target: T1, recombinant human cytosolic PEPCK (Homo sapiens, UniProt P35558); assay: PEPCK enzyme assay (coupled pyruvate kinase/lactate dehydrogenase, absorbance at 340); type: biochemical; settings: recombinant human cytosolic GST-PEPCK; GTP and OAA at 3 fold and 10 fold Km; final DMSO 10%; room temperature, twenty minutes; read-out: In vitro IC50
T1 sequence (P35558 1-622): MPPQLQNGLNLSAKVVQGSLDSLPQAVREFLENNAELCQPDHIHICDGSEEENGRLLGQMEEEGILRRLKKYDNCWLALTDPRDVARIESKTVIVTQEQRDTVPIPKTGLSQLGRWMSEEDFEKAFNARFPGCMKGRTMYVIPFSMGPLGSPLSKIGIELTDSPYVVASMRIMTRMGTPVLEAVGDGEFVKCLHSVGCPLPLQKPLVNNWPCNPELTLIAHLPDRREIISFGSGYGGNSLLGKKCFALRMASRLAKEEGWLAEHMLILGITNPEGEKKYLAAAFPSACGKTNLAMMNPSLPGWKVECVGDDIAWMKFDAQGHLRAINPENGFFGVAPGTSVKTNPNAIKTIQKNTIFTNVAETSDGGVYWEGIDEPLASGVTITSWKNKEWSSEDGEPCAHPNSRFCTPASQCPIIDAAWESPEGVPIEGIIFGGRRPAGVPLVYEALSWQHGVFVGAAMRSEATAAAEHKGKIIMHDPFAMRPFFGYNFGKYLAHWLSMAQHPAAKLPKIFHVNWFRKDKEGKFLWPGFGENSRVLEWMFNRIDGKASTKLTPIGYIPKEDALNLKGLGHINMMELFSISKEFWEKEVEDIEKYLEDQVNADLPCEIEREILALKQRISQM
Experimental: E. coli cells expressing GST-PEPCK were suspended in 5 volumes of lysis buffer (50 mM Tris-hydroxymethyl aminomethyl (TRIS), 150 mM sodium chloride (NaCl), 10 mM ethylene-diametetraacetic acid (EDTA), 5 mM dithiothreitol(DTT), 1% Nonidet P-40, pH 7.4) in the presence of protease inhibitors, incubated with lysozyme at 200 micrograms/ml for 30 min. at room temperature, and sonicated 4×30 seconds at 4 degrees C. After centrifugation at 12,000×g for 20 min. to remove insoluble material, the supernatant was loaded onto glutathione Sepharose (Pharmacia), washed with lysis buffer followed by washing with lysis buffer in the absence of NP-40. GST-PEPCK was eluted with the same buffer containing 20 mM glutathione. The eluted protein was concentrated and dialyzed against 25 mM Hepes(N-[2-hydroxyethyl]piperazine-N′[2-ethanesulfonic acid), 150 mM NaCl, 2.5 mM EDTA, 5 mM DTT, 30% glycerol, pH 7.4, and stored at −20 ° C.
The inhibitory effect of the compounds of the present invention on PEPCK enzymatic activity was determined using recombinant human cytosolic PEPCK, expressed and purified from E.coli as a GST-fusion. Guanosine triphosphate (GTP) and manganese dependent PEPCK enzyme activity catalyzed the decarboxylation of oxalacetate leading to the formation of guanosine diphosphate (GDP) and phosphoenol pyruvate (PEP). This reaction is coupled to pyruvate kinase and lactate dehydrogenase catalyzed reactions and the overall reaction rate determined by measuring the change in absorbance at 340 nm (Chang, H. C. and Lane M. D., J. Biol.Chem. 241:2413–2420, 1966). The following modifications were made to the protocol: 2.5 μg of recombinant, human cytosolic glutathione-S-transferase (GST)-PEPCK was added to a reaction mixture at room temperature which contained 0.3 mM GTP, 0.3 mM oxaloacetate (OAA), 3 mM magnesium chloride (MgCl2), 0.075 mM manganese chloride (MnCl2), 30 mM potassium phosphates (KPO4), pH 7.6, 1 mM dithiothreitol (DTT), 0.2 mM adenosine diphosphate (ADP), 1 mM nicotinamide adenine dinucleotide, reduced form (NADH), 0.9 Units/ml each of pyruvate kinase and lactate dehydrogenase and 1 mg/ml bovine serum albumin (BSA). Test compounds were added such that final concentration of DMSO was 10%. Reactions were run for twenty minutes.
Km values for GTP and OAA were determined according to Michelis-Menton conditions as described in Cornish-Bowden (Fundamentals of Enzyme Kinetics, 1995) in essentially the coupled assay conditions described above. […] Test compounds were added to reactions over a range of concentrations and IC50's were calculated from plots of inhibitor concentration versus enzyme rate. This method of determination of IC50 values is equally applicable to calculations based on PEPCK cellular assay.
The in vitro biological activity of several representative preferred compounds of the present invention in the foregoing PEPCK enzymatic assay is presented in Table 1.

Row | SMILES | IC50 [nM]
1 | Cc1ncccc1C(=O)N(C)c1ccc(Cc2nc3c([nH]2)c(=O)n(Cc2ccccc2F)c(=O)n3CC2CC2)cc1 [Example 95, N-{4-[3-Cyclopropylmethyl-1-(2-fluorobenzyl)-2,6-dioxo-2,3,6,7-tetrahydro-1H-purin-8-ylmethyl]-phenyl}-2,N-dimethyl-nicotinamide] | 370
2 | CN(C(=O)c1cncnc1)c1ccc(Cc2nc3c([nH]2)c(=O)n(Cc2ccccc2F)c(=O)n3CC2CC2)cc1 [Example 96, Pyrimidine-5-carboxylic acid {4-[3-cyclopropylmethyl-1-(2-fluorobenzyl)-2,6-dioxo-2,3,6,7-tetrahydro-1H-purin-8-ylmethyl]-phenyl}-methyl-amide] | 380
3 | CN(C(=O)c1cccnc1)c1ccc(Cc2nc3c([nH]2)c(=O)n(Cc2ccccc2F)c(=O)n3CC2CC2)cc1 [Example 97, N-{4-[3-Cyclopropylmethyl-1-(2-fluorobenzyl)-2,6-dioxo-2,3,6,7-tetrahydro-1H-purin-8-ylmethyl]-phenyl}-N-methyl-nicotinamide] | 420
4 | CC(=O)Nc1ccc(C(=O)N(C)c2ccc(Cc3nc4c([nH]3)c(=O)n(Cc3ccccc3F)c(=O)n4CC3CC3)cc2)cn1 [Example 98, 6-Acetylamino-N-{4-[3-cyclopropylmethyl-1-(2-fluorobenzyl)-2,6-dioxo-2,3,6,7-tetrahydro-1H-purin-8-ylmethyl]-phenyl}-N-methyl-nicotinamide] | 440
5 | CN(C(=O)c1cnccn1)c1ccc(Cc2nc3c([nH]2)c(=O)n(Cc2ccccc2F)c(=O)n3CC2CC2)cc1 [Example 99, Pyrazine-2-carboxylic acid {4-[3-cyclopropylmethyl-1-(2-fluorobenzyl)-2,6-dioxo-2,3,6,7-tetrahydro-1H-purin-8-ylmethyl]-phenyl}-methyl-amide] | 460
6 | CN(C(=O)c1ccc(O)nc1)c1ccc(Cc2nc3c([nH]2)c(=O)n(Cc2ccccc2F)c(=O)n3CC2CC2)cc1 [Example 100, N-{4-[3-Cyclopropylmethyl-1-(2-fluorobenzyl)-2,6-dioxo-2,3,6,7-tetrahydro-1H-purin-8-ylmethyl]-phenyl}-6-hydroxy-N-methyl-nicotinamide] | 550
7 | CN(C(=O)c1cccnc1O)c1ccc(Cc2nc3c([nH]2)c(=O)n(Cc2ccccc2F)c(=O)n3CC2CC2)cc1 [Example 101, N-{4-[3-Cyclopropylmethyl-1-(2-fluorobenzyl)-2,6-dioxo-2,3,6,7-tetrahydro-1H-purin-8-ylmethyl]-phenyl}-2-hydroxy-N-methyl-nicotinamide] | 630
8 | Cc1nn(C)c(C)c1C(=O)N(C)c1ccc(Cc2nc3c([nH]2)c(=O)n(Cc2ccccc2F)c(=O)n3CC2CC2)cc1 [Example 102, 1,3,5-Trimethyl-1H-pyrazole-4-carboxylic acid {4-[3-cyclopropylmethyl-1-(2-fluorobenzyl)-2,6-dioxo-2,3,6,7-tetrahydro-1H-purin-8-ylmethyl]-phenyl}-methyl-amide] | 230
9 | Cc1nn(C)c(C)c1C(=O)C(=O)N(C)c1ccc(Cc2nc3c([nH]2)c(=O)n(Cc2ccccc2F)c(=O)n3CC2CC2)cc1 [Example 103, N-{4-[3-Cyclopropylmethyl-1-(2-fluorobenzyl)-2,6-dioxo-2,3,6,7-tetrahydro-1H-purin-8-ylmethyl]-phenyl}-N-methyl-2-oxo-2-(1,3,5-trimethyl-1H-pyrazol-4-yl)-acetamide] | 250
10 | Cc1nn(C)c(Cl)c1C(=O)N(C)c1ccc(Cc2nc3c([nH]2)c(=O)n(Cc2ccccc2F)c(=O)n3CC2CC2)cc1 [Example 104, 3-Chloro-1,5-dimethyl-1H-pyrazole-4-carboxylic acid {4-[3-cyclopropylmethyl-1-(2-fluorobenzyl)-2,6-dioxo-2,3,6,7-tetrahydro-1H-purin-8-ylmethyl]-phenyl}-methyl-amide] | 280
11 | Cc1nc(C)c(C(=O)N(C)c2ccc(Cc3nc4c([nH]3)c(=O)n(Cc3ccccc3F)c(=O)n4CC3CC3)cc2)s1 [Example 105, 2,4-Dimethyl-thiazole-5-carboxylic acid {4-[3-cyclopropylmethyl-1-(2-fluorobenzyl)-2,6-dioxo-2,3,6,7-tetrahydro-1H-purin-8-ylmethyl]-phenyl}-methyl-amide] | 320
12 | Cc1nc(N)sc1C(=O)N(C)c1ccc(Cc2nc3c([nH]2)c(=O)n(Cc2ccccc2F)c(=O)n3CC2CC2)cc1 [Example 106, 2-Amino-4-methyl-thiazole-5-carboxylic acid {4-[3-cyclopropylmethyl-1-(2-fluorobenzyl)-2,6-dioxo-2,3,6,7-tetrahydro-1H-purin-8-ylmethyl]-phenyl}-methyl-amide] | 370
13 | Cc1nn(C)cc1C(=O)N(C)c1ccc(Cc2nc3c([nH]2)c(=O)n(Cc2ccccc2F)c(=O)n3CC2CC2)cc1 [Example 107, 1,3-Dimethyl-1H-pyrazole-4-carboxylic acid {4-[3-cyclopropylmethyl-1-(2-fluorobenzyl)-2,6-dioxo-2,3,6,7-tetrahydro-1H-purin-8-ylmethyl]-phenyl}-methyl-amide] | 500
14 | Cc1nnsc1C(=O)N(C)c1ccc(Cc2nc3c([nH]2)c(=O)n(Cc2ccccc2F)c(=O)n3CC2CC2)cc1 [Example 108, 4-Methyl-[1,2,3]thiadiazole-5-carboxylic acid {4-[3-cyclopropylmethyl-1-(2-fluorobenzyl)-2,6-dioxo-2,3,6,7-tetrahydro-1H-purin-8-ylmethyl]-phenyl}-methyl-amide] | 550
15 | Cc1nocc1C(=O)N(C)c1ccc(Cc2nc3c([nH]2)c(=O)n(Cc2ccccc2F)c(=O)n3CC2CC2)cc1 [Example 109, 3-Methyl-isoxazole-4-carboxylic acid {4-[3-cyclopropylmethyl-1-(2-fluorobenzyl)-2,6-dioxo-2,3,6,7-tetrahydro-1H-purin-8-ylmethyl]-phenyl}-methyl-amide] | 570
16 | Cc1noc(C)c1C(=O)N(C)c1ccc(Cc2nc3c([nH]2)c(=O)n(Cc2ccccc2F)c(=O)n3CC2CC2)cc1 [Example 110, 3,5-Dimethyl-isoxazole-4-carboxylic acid {4-[3-cyclopropylmethyl-1-(2-fluorobenzyl)-2,6-dioxo-2,3,6,7-tetrahydro-1H-purin-8-ylmethyl]-phenyl}-methyl-amide] | 660
17 | CN(C(=O)c1csnn1)c1ccc(Cc2nc3c([nH]2)c(=O)n(Cc2ccccc2F)c(=O)n3CC2CC2)cc1 [Example 111, [1,2,3]Thiadiazole-4-carboxylic acid {4-[3-cyclopropylmethyl-1-(2-fluorobenzyl)-2,6-dioxo-2,3,6,7-tetrahydro-1H-purin-8-ylmethyl]-phenyl}-methyl-amide] | 660
18 | CN(C(=O)c1cnn(C)c1)c1ccc(Cc2nc3c([nH]2)c(=O)n(Cc2ccccc2F)c(=O)n3CC2CC2)cc1 [Example 112, 1-Methyl-1H-pyrazole-4-carboxylic acid {4-[3-cyclopropylmethyl-1-(2-fluorobenzyl)-2,6-dioxo-2,3,6,7-tetrahydro-1H-purin-8-ylmethyl]-phenyl}-methyl-amide] | 690
19 | CC(=O)Nc1csc(C)c1C(=O)N(C)c1ccc(Cc2nc3c([nH]2)c(=O)n(Cc2ccccc2F)c(=O)n3CC2CC2)cc1 [Example 113, 4-Acetylamino-2-methyl-thiophene-3-carboxylic acid {4-[3-cyclopropylmethyl-1-(2-fluorobenzyl)-2,6-dioxo-2,3,6,7-tetrahydro-1H-purin-8-ylmethyl]-phenyl}-methyl-amide] | 740
